Key:
BRD2 BD2 = target: T1, BRD2 BD2 (Homo sapiens, UniProt P25440); experiment: Binding assay, BRD2 BD2 to acetylated histone H4 Peptide-Biotin (EPIgeneous Binding Domain Kit B); conditions: for inhibition at 0.3 µM: test compound at 300 nmol/L, read-out: Binding inhibition percentage BRD2 BD2
T1 construct: BRD2 BD2, BRD3 BD2 and BRD4 BD2 (Cisbio); purchased Cisbio
Method in brief: (§1)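 HTRF binding of GST-tagged BD2 (20 nmol/L working stock) to biotinylated acetyl-histone H4 peptide (250 nmol/L working stock), using streptavidin-XL665 and anti-GST Eu cryptate. Incubated 20 h at room temperature; 665/620 nm ratio versus DMSO gives % inhibition; IC50 by four-parameter fit, or % inhibition at 300 nmol/L.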

[1] = test system: human acute myeloid leukemia cell line RS4-11; experiment: Cell growth test (Cell Titer Glo) RS4-11; assay type: cell-based; conditions: RS4-11, Acute myeloid leukemia, 3 to 5 days
Text: (§2) The human undifferentiated thymoma cell line Ty-82 (JCRB), the human acute myeloid leukemia cell lines MV4-11 (ATCC), MOLM-13 (ATCC) and RS4-11 (ATCC), the human lymphoma cell line Raji (JCRB), the human cervical epidermoid carcinoma cell line Hela (JCRB), the human lung adenocarcinoma cell line A549 (ATCC), the human colon cancer cell lines DLD1 (DS Pharma) and HCT116 (DS Pharma), and the human pancreatic cancer cell line MIAPACA-2 (ATCC) were used to carry out a cell growth test.
(§3) Ty-82, MV4-11, MOLM-13, RS4-11, Raji and DLD1 were each seeded in a well plate, in which Roswell Park Memorial Institute (RPMI)-1640 medium supplemented with penicillin/streptomycin and fetal bovine serum (FBS) with a final concentration of 10% was placed. Hela was seeded in Dulbecco's Modified Eagle's medium (DMEM) supplemented with penicillin/streptomycin and FBS with a final concentration of 10%. A549 and MIAPACA-2 were each seeded in a well plate, in which Minimum Essential Medium (MEM) supplemented with penicillin/streptomycin and FBS with a final concentration of 10% was placed. […]
(§4) Thereafter, a medium containing a test compound serially diluted with DMSO, or DMSO, was added to each well of the plate, in which the cells had been seeded, and the obtained mixture was then cultured under conditions of 37° C. and 5% CO2 for 3 to 5 days. Cell Titer Glo reaction solution (Promega) was added to the culture, and the amount of luminescence was then measured using Envision plate reader (PerkinElmer). Since the amount of luminescence is in proportion to the concentration of adenosine triphosphate (ATP) in cells, the amount of luminescence was used as an indicator of the number of living cells. The growth inhibition percentage of the test compound in each concentration was calculated according to the following equation. Growth inhibition percentage (%)=(amount of luminescence in test compound−added well)/(amount of luminescence in DMSO−added well)×100 […]

[2] = test system: human undifferentiated thymoma cell line Ty-82; experiment: Cell growth test (Cell Titer Glo) Ty-82; assay type: cell-based; conditions: TY82, 3 to 5 days
Text: as §2
Ty-82, MV4-11, MOLM-13, RS4-11, Raji and DLD1 were each seeded in a well plate, in which Roswell Park Memorial Institute (RPMI)-1640 medium supplemented with penicillin/streptomycin and fetal bovine serum (FBS) with a final concentration of 10% was placed. Hela was seeded in Dulbecco's Modified Eagle's medium (DMEM) supplemented with penicillin/streptomycin and FBS with a final concentration of 10%. A549 and MIAPACA-2 were each seeded in a well plate, in which Minimum Essential Medium (MEM) supplemented with penicillin/streptomycin and FBS with a final concentration of 10% was placed. HCT116 was seeded in a well plate, in which McCoy's 5A medium supplemented with penicillin/streptomycin and FBS with a final concentration of 10% was placed.
Thereafter, a medium containing a test compound serially diluted with DMSO, or DMSO, was added to each well of the plate, in which the cells had been seeded, and the obtained mixture was then cultured under conditions of 37° C. and 5% CO2 for 3 to 5 days. Cell Titer Glo reaction solution (Promega) was added to the culture, and the amount of luminescence was then measured using Envision plate reader (PerkinElmer). Since the amount of luminescence is in proportion to the concentration of adenosine triphosphate (ATP) in cells, the amount of luminescence was used as an indicator of the number of living cells. The growth inhibition percentage of the test compound in each concentration was calculated according to the following equation. Growth inhibition percentage (%)=(amount of luminescence in test compound−added well)/(amount of luminescence in DMSO−added well)×100
The growth inhibition percentage of the test compound in each concentration was plotted by performing a non-linear regression analysis [(log (inhibitor) vs. response—Variable slope (four parameters)], using Graphpad prism 5, and a 50% growth inhibitory concentration [GI50 (nmol/L)] was then calculated.

BRD3 BD2 = target: T2, BRD3 BD2 (Homo sapiens, UniProt Q15059); experiment: Binding assay, BRD3 BD2 to acetylated histone H4 Peptide-Biotin (EPIgeneous Binding Domain Kit B); conditions: for inhibition at 0.3 µM: test compound at 300 nmol/L, read-out: Binding inhibition percentage BRD3 BD2
T2 construct: BRD2 BD2, BRD3 BD2 and BRD4 BD2 (Cisbio); purchased Cisbio
T2 sequence (Q15059 306-415 limits assumed): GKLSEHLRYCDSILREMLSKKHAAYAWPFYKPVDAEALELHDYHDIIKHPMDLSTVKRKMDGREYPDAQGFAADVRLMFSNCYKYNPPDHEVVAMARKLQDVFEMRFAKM
Method in brief: as §1

BRD4 BD2 = target: T3, BRD4 BD2 (Homo sapiens, UniProt O60885); experiment: Binding assay, BRD4 BD2 to acetylated histone H4 Peptide-Biotin (EPIgeneous Binding Domain Kit B); conditions: for inhibition at 0.3 µM: test compound at 300 nmol/L, read-out: Binding inhibition percentage BRD4 BD2
T3 construct: BRD2 BD2, BRD3 BD2 and BRD4 BD2 (Cisbio); purchased Cisbio
Method in brief: as §1

[3] = test system: human lung adenocarcinoma cell line A549; experiment: Cell growth test (Cell Titer Glo) A549; assay type: cell-based; conditions: 3 to 5 days
Text: as §2, §3, §4

[4] = test system: human colon cancer cell line DLD1; experiment: Cell growth test (Cell Titer Glo) DLD1; assay type: cell-based; conditions: DLD-1, 3 to 5 days
Text: as §2, §3, §4

BRD2 BD1 = target: T4, BRD2 BD1 (Homo sapiens, UniProt P25440); experiment: Binding assay, BRD2 BD1 to acetylated histone H4 Peptide-Biotin (EPIgeneous Binding Domain Kit A); conditions: for inhibition at 0.3 µM: test compound at 300 nmol/L, read-out: Binding inhibition percentage BRD2 BD1
T4 construct: BRD2 BD1, BRD3 BD1 and BRD4 BD1 (Cisbio); purchased Cisbio
T4 sequence (P25440 74-180 limits assumed): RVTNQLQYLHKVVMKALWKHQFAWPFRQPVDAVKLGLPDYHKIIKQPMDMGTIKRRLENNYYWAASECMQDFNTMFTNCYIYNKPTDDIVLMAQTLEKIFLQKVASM
Method in brief: (§5)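 HTRF competition: bromodomain protein (added at 20 nmol/L) and biotinylated tetra-acetyl H4(1-25) peptide (added at 25 nmol/L) were incubated with compound, streptavidin-d2 and anti-GST Eu cryptate for 20 h at room temperature. Inhibition came from the 665/620 nm ratio relative to DMSO; IC50 by four-parameter fit; some compounds were tested only at 300 nmol/L final.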

[5] = test system: human cervical epidermoid carcinoma cell line Hela; experiment: Cell growth test (Cell Titer Glo) Hela; assay type: cell-based; conditions: 3 to 5 days
Text: as §2, §3, §4

[6] = test system: human pancreatic cancer cell line MIAPACA-2; experiment: Cell growth test (Cell Titer Glo) MIAPACA-2; assay type: cell-based; conditions: MIA PaCa-2, MIAPACA-2, Pancreatic cancer, 3 to 5 days
Text: as §2, §3, §4

BRD3 BD1 = target: T5, BRD3 BD1 (Homo sapiens, UniProt Q15059); experiment: Binding assay, BRD3 BD1 to acetylated histone H4 Peptide-Biotin (EPIgeneous Binding Domain Kit A); conditions: for inhibition at 0.3 µM: test compound at 300 nmol/L, read-out: Binding inhibition percentage BRD3 BD1
T5 construct: BRD2 BD1, BRD3 BD1 and BRD4 BD1 (Cisbio); purchased Cisbio
T5 sequence (Q15059 34-140 limits assumed): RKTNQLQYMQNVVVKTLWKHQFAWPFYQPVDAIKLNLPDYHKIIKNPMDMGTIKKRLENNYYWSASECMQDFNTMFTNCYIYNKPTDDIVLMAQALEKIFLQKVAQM
Method in brief: as §5

[7] = test system: human colon cancer cell line HCT116; experiment: Cell growth test (Cell Titer Glo) HCT116; assay type: cell-based; conditions: HCT-116, 3 to 5 days
Text: as §2, §3, §4

T1 sequence (P25440 344-453 limits assumed): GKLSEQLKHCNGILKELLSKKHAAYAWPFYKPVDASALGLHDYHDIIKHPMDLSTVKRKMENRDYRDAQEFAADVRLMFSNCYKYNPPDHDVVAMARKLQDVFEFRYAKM

Row | IC50 (BRD2 BD2) [nM] | inhibition at 0.3 µM (BRD2 BD2) [%] | GI50 [1] [nM] | GI50 [2] [nM] | IC50 (BRD3 BD2) [nM] | inhibition at 0.3 µM (BRD3 BD2) [%] | IC50 (BRD4 BD2) [nM] | inhibition at 0.3 µM (BRD4 BD2) [%] | GI50 [3] [nM] | GI50 [4] [nM] | IC50 (BRD2 BD1) [nM] | inhibition at 0.3 µM (BRD2 BD1) [%] | GI50 [5] [nM] | GI50 [6] [nM] | IC50 (BRD3 BD1) [nM] | inhibition at 0.3 µM (BRD3 BD1) [%] | GI50 [7] [nM] | SMILES
1 | 94 | 74 | 66 | 12 | 70 | 83 | 27 | 82 | 665 | 361 | 9 | 93 | 570 | 1420 | 4 | 94 | 241 | CCn1c(=O)cc(C2CCN(C)CC2)c2cc(C(=O)N(C)c3ccc(C)cc3)ccc21 [Example 14, 1-Ethyl-N-methyl-N-(4-methylphenyl)-4-(1-methylpiperidin-4-yl)-2-oxo-1,2-dihydroquinoline-6-carboxamide]
2 | 33 | 85 | 30 | 6 | 14 | 91 | 10 | 88 | 292 | 165 | 5 | 93 | 314 | 307 | 3 | 94 | 116 | CCn1c(=O)cc(C2CCN(C)CC2)c2cc(C(=O)N(C)c3ccc4c(c3)CCC4)ccc21 [Example 17, N-(2,3-dihydro-1H-inden-5-yl)-1-ethyl-N-methyl-4-(1-methylpiperidin-4-yl)-2-oxo-1,2-dihydroquinoline-6-carboxamide]
3 | 7 | 89 | 85 | 10 | 4 | 92 | 3 | 88 | 1740 | 1340 | 61 | 79 | 1860 | 760 | 37 | 90 | 628 | CCn1c(=O)cc(N2CCOCC2)c2cc(-n3c(-c4ccc(Cl)cc4)c[nH]c3=O)ccc21 [Example 245, 6-(5-(4-chlorophenyl)-2-oxo-2,3-dihydro-1H-imidazol-1-yl)-1-ethyl-4-(morpholin-4-yl)quinolin-2(1H)-one]

Source: US10987349B2, “Antitumor agent and bromodomain inhibitor” (FUJIFILM Corporation, priority 2016, dated 2021)
